pIC50: −log10 of the molar value. Read-outs that look alike come from different tables or passages of the source.

The test system of series [1] is N-Myc-Max transcription activity (LNCaP-NMYC cells). In words: Myc transcription assay (Cignal Myc reporter, luciferase) in LNCaP-NMYC cells. Type of series: cell-based. Particulars: for pIC50: Homo sapiens, LNCaP, Table 1, transcriptional assay in LNCaP cells overexpressing N-Myc, read-out: IC50; for transcription inhibition activity (in words): LNCaP-NMYC, screened at 10 µM and 5 µM. Put shortly:
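LNCaP-NMYC cells transfected with Cignal Myc luciferase reporter were treated 24 h with compounds at 5 µM or 10 µM. Read-out: inhibition of N-Myc-Max-driven reporter luminescence.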

Series [2] shares this test system. Described as above. The series is classed as cell-based.
The test system of series [3] is HO15.19 cells. Put plainly: Cell viability counter-screen (CellTiter-Glo), Myc-negative HO15.19. The series is classed as cell-based. Particulars: for inhibition at 10 µM: Rattus norvegicus, HO15.19, 10 µM, Myc-negative specificity control. The protocol: (§1) The 54 compounds were tested at 10 µM for their inhibition of the IMR32 human neuroblastoma cell line, in which the MYCN gene is amplified and actively expressed (Table 3). HO15.19 cell line (Myc-negative) was used in parallel as a compound specificity control.
(§2) Viability of N-Myc positive (IMR32and NCI-H660) and negative (HO15.19) cells were determined using the CellTiter-Glo Luminescent Cell Viability Assay (Promega cat. G7570) (Madison, WI, USA). Cells were seeded into a 96-well white plate with a clear bottom: 10,000 cells per well for the IMR32 cells cultured in EMEM supplemented with 10% FBS, 2000 HO15.19 cells per well in Eagle’s minimum essential medium (EMEM) supplemented with 10% FBS, and 2000 cells per well for the NCI-H660 neuroendocrine cells cultured in RPMI supplemented 5% FBS, 1% Insulin-Transferrin-Selenium (Thermo Fisher, 41400-045), 10nM b-estradiol (Sigma, E8875), 10nM hydrocortisone (Sigma H0888) and 1% matrigel. Following 24 h incubation, the cells were treated with serial dilutions of the derivatives along with the respective parental compound starting at 25 μM for 72 h. Cell Titer Glo was added to each well at a ratio of 1:1 and incubated on a shaker at RT for 2 min. Luminescence and IC50 was measured with the TECAN InfiniteM200 plate reader (Männedorf, Switzerland).

A short description of series [4]: Microsomal stability assay. Type of series: in vitro ADME, Mouse. Particulars: mouse liver microsomes, 1 µM compound. On the procedure:
A microsomal stability assay was performed using the Corning Gentest NADPH Regenerating System (Corning, #451220/41200) (Corning, NY, USA). Mouse liver microsomes (MLM) (Xenotech, M1000) (Kansas City, KS, USA) and compounds were diluted to a final concentration of 0.15 mg/mL and 1 μM respectively. These were prepared into a 500 μL solution with 100 mM potassium phosphate buffer (pH = 7.4). Imipramine was used as a control. NADPH solutions A and B were mixed in a 5:1 ratio, and 24 μL of the NADPH was added to each of the MLM/compound samples at 30 s intervals. At time points 10, 20, and 45 min, 100 μL of reaction was added to the stopping solution. Samples were centrifuged at 18,000× g and incubated at 4 °C for 10 min. Samples were then loaded onto a LC-MS 96-well plate for analysis.

Series [5] can be described thus: Pharmacokinetics after IP and PO dosing. Type of series: in vivo, male Balb/c mice. The following applies: 10 mg/kg; for Tmax: 75:25 PG/PEG 400 formulation; for Cmax: 70551 in 75:25 PG/PEG 400, 70619 in 20:80 Kolliphor EL. The protocol: In order to characterize VPC-70619 as a drug candidate against N-myc, its pharmacokinetic (PK) characteristics were evaluated in Balb/c mice following intraperitoneal (IP) and peroral (PO) administrations. As presented in Figure 5, we determined the PK properties of VPC-70619 and compared it to the parental molecule, VPC-70551. […] The clearance of 70551 for PO delivery was extremely slow, and we could not determine the T1/2 in the experimental conditions used for this assay. […] Therefore, VPC-70619 was deemed to have appropriate efficacy in vivo, and a better pharmacokinetic profile due to higher bioavailability for both oral and intraperitoneal administration.
Bienta Enamine Biology Services (Kyiv, Ukraine) conducted PK studies according to the Enamine PK study protocols and Institutional Animal Care and Use Guidelines. The PK studies were reviewed and approved by the Bienta Animal Care and Use Committee (BACUC) under the project identification codes PK-VPC-112618 (approved 17 December 2018) and PK-VPC-101119 (approved 21 October 2019), for VPC-70551 and […], respectively. Evaluation of 70619 and 70551 was conducted in male Balb/c mice through intraperitoneal (IP) and peroral (PO) administration. Measurements were taken at six time points: 5, 15, 60, 120, 240, and 360 min for IP; 15, 30, 60, 120, 240, and 480 min for PO. Four mice were included in each treatment group for each time point; one mouse each for IP and PO was included as a control. Initial target administration for both IP and PO was 10 mg/kg dose level, 2 mg/mL dose concentration, and 5 mL/kg dose volume. Concentration of the compounds was evaluated in the plasma samples using an LC-MS/MS system.

Series [6] deals with IMR32 cells. Put plainly: Cell viability (CellTiter-Glo), IMR32. The series is classed as cell-based. Particulars: Homo sapiens, IMR-32. The protocol:
as §1, §2

As to `O=C(NCc1cnn(Cc2ccccc2)c1)[C@@H]1COc2ccccc2O1` [compound 70215], the pIC50 in series [1] was 4.70. In series [2], the inhibition at 25 µM stood at 92%.
The corresponding values for `O=C(CCc1c[nH]c2ccccc12)Nc1nc2ccccc2[nH]1` [compound 70223] are 5.00 and 103%.
The corresponding values for `C[C@H](CCc1ccccc1)NC(=O)[C@H]1CCCN(C(=O)CCc2c[nH]c3ccccc23)C1` [compound 70314] are 4.82 and 93%.
The matching figures for `CC[C@@H]1Oc2cc(S(=O)(=O)N(C)CC(=O)N(C)Cc3ccccc3)c(C)cc2NC1=O` [compound 70381]: 4.70 and 74%.
As to `O=C(CCN1C(=O)/C(=C\c2ccccc2)SC1=S)NCCc1c[nH]c2ccccc12` [compound 70388], the pIC50 in series [1] was 4.70. For the same compound, in series [2], the inhibition at 25 µM came to 77%.
For `Cc1cccc(-c2cc(C(=O)Nc3ccc(S(=O)(=O)N4CCCCC4)cc3)n[nH]2)c1O` [compound 70390], the negative logarithm of the IC50 (pIC50) in series [1] is 5.05. For the same compound, in series [2], the inhibition at 25 µM came to 97%.
The corresponding values for `Fc1ccccc1CNC(=S)Nc1cccc(C(F)(F)F)c1` [compound 70465] are 5.00 and 92%.
The matching figures for `FC(F)(F)c1cc(Br)cc(NC(=S)NCc2cccs2)c1` [compound 70495]: 5.30 and 100%.
Take `O=C(Nc1cccc(C(F)(F)F)c1)Nc1cccc(C(F)(F)F)c1` [compound 70511]: in series [1], the negative logarithm of the IC50 (pIC50) is 5.70 and the “transcription inhibition activity (in words)” value was “promising inhibitory activity”. The inhibition at 25 µM in series [2] was determined as 102%. Besides, in series [3] (counter-screen), the “cytotoxicity in Myc-negative HO15.19 (in words)” value is recorded as “highly cytotoxic profile”.
On to `N#Cc1ccc(NNC(=O)c2ccc(C(F)(F)F)cc2)c(C(F)(F)F)c1` [compound 70551], for which the “microsomal half-life (T1/2)” value in series [4] (listed as VPC-70551) stood at 140 min. For the same compound, in series [4] (mouse, pH 7.4, mouse liver microsomes, read-out: microsomal half-life (T1/2)), the half-life at 1 μM stood at 141 min. Also, the half-life in series [5] (male, Balb/c, mouse, plasma, ip, read-out: plasma half-life (T1/2) IP) turned out to be 332 min. Moreover, the Tmax is 1 h in series [5] (male, Balb/c, mouse, plasma, IP, read-out: Tmax IP (converted)) and 8 h in series [5] (male, Balb/c, mouse, plasma, PO, read-out: Tmax PO (converted)). The Cmax in series [5] (male, Balb/c, mouse, plasma, IP, read-out: Cmax IP) was 6220 ng/mL; in series [5] (male, Balb/c, mouse, plasma, PO, read-out: Cmax PO), 2600 ng/mL. Moreover, the “adverse effects / signs of toxicity in PK animals” value in series [5] (single dose IP or PO) is reported as “No obvious adverse effects”. In series [1], the pIC50 is 5.40. In series [2], the inhibition at 25 µM was found to be 98%.
In the case of `N#Cc1ccc(NNC(=O)c2cc(Cl)cc([N+](=O)[O-])c2)c(C(F)(F)F)c1` [compound 70761], the “transcription inhibition activity (in words)” value in series [1] is given as “better inhibition activity”. For the same compound, the inhibition at 10 µM in series [3] came out at 81%; in series [6] it was 93.3%.
The corresponding values for `N#Cc1ccc(NNC(=O)c2cc(F)c(Cl)c(F)c2)c(C(F)(F)F)c1` [compound 70767] are “strong increase in inhibition activity”, 40.3% and 31.6%.
The corresponding values for `N#Cc1ccc(NNC(=O)c2cc(Cl)cc(Br)c2F)c(C(F)(F)F)c1` [compound 70768] are “high transcription inhibition activity”, 39.8% and 35.3%.
The matching figures for `N#Cc1ccc(NNC(=O)c2cc(C(F)(F)F)ccc2F)c(C(F)(F)F)c1` [compound 70769]: “high transcription inhibition activity”, 28.2% and 32.2%.
In the case of `N#Cc1ccc(NNC(=O)c2cc(F)c(Br)c(Cl)c2)c(C(F)(F)F)c1` [compound 70775], the “transcription inhibition activity (in words)” value in series [1] was “strong increase in inhibition activity”. Moreover, the inhibition at 10 µM came to 65.1% in series [3] and 62.4% in series [6].
The corresponding values for `N#Cc1ccc(NNC(=O)c2cc(Cl)cc(F)c2Br)c(C(F)(F)F)c1` [compound 70776] are “high transcription inhibition activity”, 26.1% and 27.4%.
The matching figures for `N#Cc1ccc(NNC(=O)c2cc(OC(F)F)cc(OC(F)F)c2)c(C(F)(F)F)c1` [compound 70792]: “maintained good transcription inhibition activity”, 79.5% and 84.9%.
The matching figures for `N#Cc1ccc(NNC(=O)c2cc(F)cc(C(F)(F)F)c2)c(C(F)(F)F)c1` [compound 70794]: “better inhibition activity”, 80.7% and 89.2%.
As for `N#Cc1ccc(NNC(=O)c2ccc(C(F)(F)F)cc2O)c(C(F)(F)F)c1` [compound 70797], the “transcription inhibition activity (in words)” value in series [1] was “activity was maintained”. For the same compound, the results for the inhibition at 10 µM in series [3] and in series [6] were 34.2% and 24.7%, respectively.

For the origin of these results see PMC8910697, “Development of VPC-70619, a Small-Molecule N-Myc Inhibitor as a Potential Therapy for Neuroendocrine Prostate Cancer” (International Journal of Molecular Sciences, 2022).
